From PMC11141368, “Antioxidant, antibacterial, enzyme inhibition and fluorescence characteristics of unsymmetrical thiourea derivatives” (Heliyon, 2024)

Experiments:
[1] = DPPH free radical scavenging assay; format: biochemical
Description: (§1) In accordance with the procedure described in the literature, the ABTS activity assay was applied to evaluate the free radical scavenging capabilities of the synthesized compounds (1–6). ABTS solution was prepared by mixing 7 mM ABTS and 2.45 mM potassium persulfate and was then placed for 16 h under dark at room temperature. A methanol dilution was performed on the solution to achieve an absorbance of 0.706 ± 0.001 at 734 nm before starting the assay. To quantify the assay, 3 mL of the ABTS solution has been added to different concentrations (ranging from 62.5 to 1000 μg/mL) of every compound (300 μL) that were dissolved in methanol. Then after 1 min of incubation, the absorbance was continuously measured for 5 min. To confirm precision, all experiments were conducted in triplicate. The antioxidant capacities of the compounds were assessed with gallic acid as a reference, and the ability to remove free radicals was calculated as a percentage for each compound employing Equation.1 as presented below. Additionally, the DPPH free radical scavenging method was employed to assess the antioxidant activity of compounds (1–6), in accordance with a widely recognized procedure documented in existing literature. Concentrations ranging from 62.5 to 1000 μg/mL of compounds (1–6), dissolved in methanol, were introduced into a 2 mL solution of DPPH (0.002 % in methanol). The resulting solutions were kept in the dark at room temperature for a duration of 30 min. The amount of light absorbed by the solutions was then determined using a UV/vis spectrophotometer at a wavelength of 517 nm. The investigations were performed three times, using the exact protocol described for the ABTS scavenging assay. Afterwards, the antioxidant capabilities of each molecule were assessed using calculation.(1) Scavengingactivity(%)=A−B/A×100
(§2) Where, A = absorbance of ABTS/DPPH and B = absorbance of solution containing ABTS/DPPH and test samples.

[2] = ABTS free radical scavenging assay; format: biochemical
Description: as §1, §2

E. coli = test: Antibacterial agar well diffusion; format: cell-based, Escherichia coli (ATCC25922); conditions: Escherichia coli, 24 h, 6.25 mg/mL per well, 37 °C
Excerpt: (§3) The antibacterial assay was done for all compounds (1–6) as described in previous studies. The mean number of viable organisms per milliliter of stock suspensions containing Escherichia coli (ATCC25922), Pseudomonas aeruginosa (ATCC27853), Salmonella typhi (ATCC0650), and Staphylococcus aureus (NCTC25953) was uncovered using the surface viable counting method. Preparations of suspensions containing approximately 108–109 colony forming units (CFU) per milliliter were made. Aseptic nutritional agar was formulated and transferred onto petri dishes. Cultures of bacteria were uniformly distributed on agar surface using sterile brush sticks. Five wells, each with a diameter of 6 mm, were made in each plate using a sterile borer. Afterwards, a concentration of 6.25 mg/mL of each component was applied to separate wells. Cephradine, a readily accessible antibiotic, was employed as a reference standard at an equivalent concentration. Following sealing, the agar dishes were incubated at a controlled temperature of 37 °C for a period of 24 h. The zone of inhibition in the plates was determined, which represents the inhibition of bacterial growth. Each sample zone of inhibition diameter was evaluated, and the antibacterial effectiveness of each drug was quantified according to the mean diameter of the inhibition zone (in millimetres).

S. typhi = test: Antibacterial agar well diffusion; format: cell-based, Salmonella typhi (ATCC0650); conditions: Salmonella enterica, TYPHI, 24 h, 6.25 mg/mL per well, 37 °C
Excerpt: as §3

S. flexenari = test: Antibacterial agar well diffusion; format: cell-based; conditions: 24 h, 6.25 mg/mL per well, 37 °C
P. aeruginosa = test: Antibacterial agar well diffusion; format: cell-based, Pseudomonas aeruginosa (ATCC27853); conditions: Pseudomonas aeruginosa, 24 h, 6.25 mg/mL per well, 37 °C
Excerpt: as §3

[3] = molecular target: T1, acetylcholinesterase (AChE) (Electrophorus electricus, UniProt O42275); test: biochemical
T1 construct: The AChE was derived from the electric eel, while BChE was obtained from equineserum; from tissue; host or cells: electric eel (tissue not specified)
T1 sequence (O42275 24-633): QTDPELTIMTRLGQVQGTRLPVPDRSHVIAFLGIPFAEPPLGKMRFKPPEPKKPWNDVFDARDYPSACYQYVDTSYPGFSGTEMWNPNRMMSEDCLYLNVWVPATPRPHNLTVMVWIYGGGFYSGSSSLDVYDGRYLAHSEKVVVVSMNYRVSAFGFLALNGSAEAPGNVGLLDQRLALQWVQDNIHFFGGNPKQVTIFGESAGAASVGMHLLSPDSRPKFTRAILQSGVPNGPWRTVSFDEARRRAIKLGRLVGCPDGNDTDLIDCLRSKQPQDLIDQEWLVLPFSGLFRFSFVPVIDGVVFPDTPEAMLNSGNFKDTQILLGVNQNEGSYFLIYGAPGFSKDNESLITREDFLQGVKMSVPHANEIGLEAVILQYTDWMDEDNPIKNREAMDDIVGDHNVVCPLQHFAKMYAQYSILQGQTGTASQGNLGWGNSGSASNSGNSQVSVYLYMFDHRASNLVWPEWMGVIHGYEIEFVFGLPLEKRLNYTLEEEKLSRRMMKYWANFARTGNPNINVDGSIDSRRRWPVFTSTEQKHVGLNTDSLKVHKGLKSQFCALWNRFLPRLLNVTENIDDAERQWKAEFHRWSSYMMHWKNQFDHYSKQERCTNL
Description: (§4) This assay employed two enzymes, namely acetylcholinesterase (AChE) and butyryl cholinesterase (BChE). The AChE was derived from the electric eel, while BChE was obtained from equineserum. The synthesized compounds were dissolved in phosphate buffer (0.1 M, pH 8.0). The enzymes AChE (518 U/mg) and BChE (7–16 U/mg) were diluted in a 0.1 M phosphate buffer to achieve concentrations of 0.03 U/mL and 0.01 U/mL, respectively. Preparations of ATchI (0.5 mM), DTNB (0.2273 mM), and BTchI (0.5 mM) were made in distilled water and stored at a low temperature of 8 °C. […] The solution was heated to 30 °C for 15 min, followed by the gradual addition of the substrate. Absorbance of the heated sample at 412 nm was measured using a double beam spectrophotometer. […] The percentage activity (A) and inhibition of the enzyme were determined by applying the rate of absorption as a function of time (V=ΔAbs/Δt) using the following equation (Equation (2)).(2) %Inhibition=V/Vmax×100 Where V = enzyme inhibition activity of products and Vmax = enzyme activity without test of product.

[4] = molecular target: T2, butyryl cholinesterase (BChE) (Equus caballus, UniProt P81908); test: Anticholinesterase assay (Elman's test), BChE; format: biochemical
T2 construct: The AChE was derived from the electric eel, while BChE was obtained from equineserum; from tissue; host or cells: equine serum
T2 sequence (P81908 whole entry): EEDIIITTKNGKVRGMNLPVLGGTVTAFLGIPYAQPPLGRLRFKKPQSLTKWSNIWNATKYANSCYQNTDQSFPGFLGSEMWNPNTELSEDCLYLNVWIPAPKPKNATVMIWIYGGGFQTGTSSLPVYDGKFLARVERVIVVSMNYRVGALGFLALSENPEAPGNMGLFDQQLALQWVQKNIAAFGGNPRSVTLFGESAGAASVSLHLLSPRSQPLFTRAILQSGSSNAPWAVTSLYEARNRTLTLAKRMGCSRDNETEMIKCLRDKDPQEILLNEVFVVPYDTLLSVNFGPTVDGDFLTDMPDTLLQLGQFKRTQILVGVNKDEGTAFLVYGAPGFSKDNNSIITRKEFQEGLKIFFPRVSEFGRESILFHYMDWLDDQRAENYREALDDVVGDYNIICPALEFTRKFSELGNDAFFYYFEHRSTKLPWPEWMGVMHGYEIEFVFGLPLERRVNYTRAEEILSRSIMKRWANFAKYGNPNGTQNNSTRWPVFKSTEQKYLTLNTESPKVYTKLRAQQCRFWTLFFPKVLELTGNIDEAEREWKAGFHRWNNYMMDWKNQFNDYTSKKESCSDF
Description: as §4

[5] = read-out: AChE Percent inhibition
[6] = read-out: BChE Percent inhibition

With `Cc1cccnc1NC(=S)NC1CCCCC1` [Compound 2, 1-cyclohexyl-3-(3-methylpyridin-2-yl)thiourea] the “DPPH IC50” value [1] was 72.00 µg/mL, the DPPH %inhibition ([1]; 62.5 μg/mL) was 46.51 ± 2.74% and the DPPH %inhibition ([1]; 125 μg/mL) was 54.86 ± 2.86%. For the same molecule, the DPPH %inhibition ([1]; 250 μg/mL) was 64.15 ± 2.10%, the DPPH %inhibition ([1]; 500 μg/mL) was 73.41 ± 2.87% and the DPPH %inhibition ([1]; 1000 μg/mL) was 81.22 ± 2.89%. For the same molecule, the “ABTS IC50” value [2] was 82.02 µg/mL, the ABTS %inhibition ([2]; 62.5 μg/mL) was 45.52 ± 2.80% and the ABTS %inhibition ([2]; 125 μg/mL) was 51.10 ± 1.39%. It also gave an ABTS %inhibition ([2]; 250 μg/mL) of 60.39 ± 1.71%, an ABTS %inhibition ([2]; 500 μg/mL) of 70.37 ± 2.37% and an ABTS %inhibition ([2]; 1000 μg/mL) of 79.87 ± 2.65%. For the same molecule, the zone of inhibition at 6250 µg/mL (E. coli) was 9.5 mm, the zone of inhibition at 6250 µg/mL (S. typhi) was 11.5 mm and the zone of inhibition at 6250 µg/mL (S. flexenari) was 11 mm. For the same molecule, the zone of inhibition at 6250 µg/mL (P. aeruginosa) was 13.5 mm, the IC50 [3] was 1.48 mM and the inhibition at 62.5 µg/mL [3, 5] was 29.7 ± 0.61%. For the same molecule, the inhibition at 125 µg/mL [3, 5] was 35.7 ± 0.77%, the inhibition at 250 µg/mL [3, 5] was 43.8 ± 0.56% and the inhibition at 500 µg/mL [3, 5] was 54.6 ± 0.8%. For the same molecule, the inhibition at 1000 µg/mL [3, 5] was 62.6 ± 0.77%, the IC50 [4] was 1.26 mM and the inhibition at 62.5 µg/mL [4, 6] was 31.5 ± 0.71%. For the same molecule, the inhibition at 125 µg/mL [4, 6] was 37.5 ± 0.77%, the inhibition at 250 µg/mL [4, 6] was 45.8 ± 0.58% and the inhibition at 500 µg/mL [4, 6] was 56.45 ± 0.49%. For the same molecule, the inhibition at 1000 µg/mL [4, 6] was 64.79 ± 0.62%.
